The values that follow come from PubChem BioAssay (NCI).

Test systems include ACHN renal; PC-3 prostate; A549 NSCLC; MCF7 breast; K-562 leukemia; RXF 393 renal; T-47D breast; UACC-257 melanoma; U251 CNS; HOP-62 NSCLC; MDA-MB-435; CCRF-CEM leukemia; MALME-3M melanoma; SR leukemia.
Common to all, as to assay: NCI anticancer screen, dose series, 48 h

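Exposure lasted 48 hours, with cells grown in 96-well plates and compounds tested at five concentrations. At the TGI there is no net growth.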

For `O=C(N/N=C(/COc1ccccc1)N=Cc1ccncc1)c1ccncc1`, the TGI in the assay on ACHN renal, in the assay on PC-3 prostate, in the assay with A549 NSCLC, with MCF7 breast, with K-562 leukemia and in the assay on RXF 393 renal was greater than 100 µM each time. The TGI in the assay on T-47D breast, in the assay with UACC-257 melanoma, in the assay with U251 CNS, in the assay with HOP-62 NSCLC, in the assay on MDA-MB-435 and with CCRF-CEM leukemia was greater than 100 µM each time.
Take `Cc1ccc(Nc2c3c(c(C#N)c4nc5ccccc5n24)CCCC3)cc1`: the TGI in the assay on ACHN renal was greater than 100 µM; in the assay with PC-3 prostate, 87.2 µM; in the assay with A549 NSCLC it was greater than 100 µM; in the assay on MCF7 breast, greater than 100 µM; with K-562 leukemia, greater than 100 µM; with T-47D breast it was greater than 100 µM. Moreover, the TGI with UACC-257 melanoma is 55 µM; in the assay with U251 CNS, greater than 100 µM; in the assay with MALME-3M melanoma, 77.9 µM; in the assay with MDA-MB-435, 45.8 µM; with CCRF-CEM leukemia it was 31.6 µM.
In the case of `COc1ccc(-c2nc(-c3ccc(OC)cc3)n(-c3ccccc3)n2)cc1`, the TGI in the assay with ACHN renal, in the assay on PC-3 prostate, in the assay on A549 NSCLC, in the assay on MCF7 breast, in the assay on RXF 393 renal and with T-47D breast was greater than 100 µM throughout. Moreover, the TGI in the assay on UACC-257 melanoma, in the assay on U251 CNS, with HOP-62 NSCLC, in the assay on MDA-MB-435 and in the assay with CCRF-CEM leukemia was greater than 100 µM throughout.
Take `CC1=C(C(=O)NNC(=O)Cc2ccccc2)CC(C(=O)NNC(=O)Cc2ccccc2)=C(C)N1`: the TGI in the assay with ACHN renal, in the assay with A549 NSCLC, with MCF7 breast, in the assay on RXF 393 renal, in the assay with T-47D breast and in the assay with UACC-257 melanoma was greater than 100 µM in each case. Also, the TGI in the assay with U251 CNS, with HOP-62 NSCLC and in the assay on MDA-MB-435 was greater than 100 µM throughout.
`O=[N+]([O-])c1ccc(CSc2nn(Cc3ccc([N+](=O)[O-])cc3)cc3ncnc2-3)cc1`: the TGI in the assay with ACHN renal, with PC-3 prostate, with A549 NSCLC, in the assay on MCF7 breast, in the assay with K-562 leukemia and in the assay on T-47D breast was greater than 100 µM in each case. Besides, the TGI was greater than 100 µM in the assay with UACC-257 melanoma, greater than 100 µM with HOP-62 NSCLC, 65.2 µM in the assay on MALME-3M melanoma and 74.7 µM in the assay on MDA-MB-435.
Regarding `CC(=N/NC(=S)N1CCCCCC1)/C(C)=N\NC(=S)N1CCCCCC1`, the TGI in the assay on ACHN renal is 9.67 µM; with PC-3 prostate, 23.8 µM; with A549 NSCLC, 18.1 µM; in the assay on MCF7 breast, greater than 25.1 µM; in the assay on K-562 leukemia, greater than 100 µM; in the assay with RXF 393 renal it was 8.88 µM. Moreover, the TGI in the assay on T-47D breast worked out at 3.54 µM; with UACC-257 melanoma, 13.7 µM; with U251 CNS it was 5.73 µM; with HOP-62 NSCLC it was 15.2 µM; with MALME-3M melanoma, 11.1 µM; in the assay with MDA-MB-435, 3.41 µM.
Regarding `CN1C(=O)c2ccccc2C(O)(c2ccccc2)C1(O)c1ccccc1` (centres undefined), the TGI with ACHN renal, in the assay with PC-3 prostate, with A549 NSCLC, in the assay on SR leukemia, with K-562 leukemia and with RXF 393 renal was greater than 100 µM in each case. Further, the TGI with T-47D breast, in the assay on UACC-257 melanoma, with U251 CNS, with HOP-62 NSCLC, in the assay on MALME-3M melanoma and with MDA-MB-435 was greater than 100 µM throughout. Besides, the TGI with CCRF-CEM leukemia is greater than 100 µM.
On to `C/C=C1\CC(C(=O)OCC)CCCCCCC1=O` (centres undefined), for which the TGI in the assay on ACHN renal, with PC-3 prostate, with A549 NSCLC, in the assay on MCF7 breast, in the assay with RXF 393 renal and in the assay on T-47D breast was greater than 100 µM each time. Also, the TGI with UACC-257 melanoma, in the assay on U251 CNS, in the assay with HOP-62 NSCLC, with MALME-3M melanoma, in the assay with MDA-MB-435 and with CCRF-CEM leukemia was greater than 100 µM throughout.
On to `CCOC(=O)NN(C(=O)OCC)c1ccc(N=Nc2ccc(OC)cc2)n1C`, for which the TGI is 58.2 µM in the assay with ACHN renal; 53.4 µM in the assay with PC-3 prostate; 63.5 µM with A549 NSCLC; 31.8 µM in the assay on MCF7 breast; 71.4 µM in the assay on K-562 leukemia; greater than 100 µM in the assay on RXF 393 renal. Moreover, the TGI in the assay with T-47D breast is 76.2 µM; in the assay on UACC-257 melanoma, 56.1 µM; with U251 CNS, greater than 100 µM; with HOP-62 NSCLC, 86.8 µM; with MALME-3M melanoma, 62.7 µM; with MDA-MB-435, 56 µM.
On to `CN(C)c1ccc(/C=C/C(=O)c2cc(C(C)(C)C)c(O)c(C(C)(C)C)c2)cc1`, for which the TGI was greater than 100 µM in the assay with ACHN renal; greater than 100 µM in the assay with PC-3 prostate; greater than 100 µM in the assay with A549 NSCLC; greater than 100 µM in the assay with MCF7 breast; greater than 100 µM with K-562 leukemia; 0.511 µM with RXF 393 renal. The TGI in the assay on T-47D breast was greater than 100 µM; in the assay on U251 CNS, 5.79 µM; in the assay with HOP-62 NSCLC, greater than 100 µM; in the assay on MALME-3M melanoma, greater than 100 µM; with MDA-MB-435 it was 1.87 µM; in the assay on CCRF-CEM leukemia, greater than 25.7 µM.
